Patent US10285400B2, “Disinfectant composition containing quaternary ammonium compounds” (LONZA, INC., priority 2014, dated 2019)

How the values were obtained:
[1] = test system: Pseudomonas aeruginosa (Pa); assay: OECD Quantitative Method for Evaluating Bacterial Activity of Microbiocides Used on Hard Non-Porous Surfaces; type: cell-based; settings: diluted with 375 ppm hard water, test concentration as in test composition
Description: (§1) Bardac 2250, containing of 50% didecyldimethylammonium chloride and 10% ethanol from Lonza, was used for the formulations.

[2] = test system: Staphylococcus aureus (Sa); assay: as above; type: cell-based; settings: diluted with 375 ppm hard water, test concentration as in test composition
Description: as §1

CCCCCCCCCC[N+](C)(C)CCCCCCCCCC.[Cl-] [Sample 3, didecyldimethylammonium chloride]
# Log Reduc. 5 min contact Pa [1]: 3.3 Log

OO [Sample 1, hydrogen peroxide]
# Log Reduc. 5 min contact Pa [1]: 1.6 Log | # Log Reduc. 5 min contact Sa [2]: 0.3 Log

OO [Sample 2, hydrogen peroxide]
# Log Reduc. 5 min contact Pa [1]: 1.8 Log | # Log Reduc. 5 min contact Sa [2]: 3.2 Log

OO [hydrogen peroxide]
# Log Reduc. 5 min contact Pa [1]: ineffective | # Log Reduc. 5 min contact Sa [2]: ineffective

CCCCCCCCCC[N+](C)(C)CCCCCCCCCC.[Cl-] [Bardac 22, didecyldimethylammonium chloride]
# Log Reduc. 5 min contact Pa [1]: ineffective | # Log Reduc. 5 min contact Sa [2]: ineffective
